From US7696129B2, “Substituted aromatic amide derivative, intermediate thereof, agrohorticultural insecticide containing thereof and method for the use thereof” (Nihon Nohyaku Co., Ltd., priority 2001, dated 2010)

Experiments:
Format in all cases: in vivo
[1] = system: Smaller Tea Tortrix (Adxophyes sp.); assay: Test Example 3: insecticidal effect on smaller tea tortrix, tea leaf immersion; conditions: 50 ppm, tea leaves immersed about 30 seconds, larvae, 25° C., humidity 70%, eight days after the inoculation
Protocol: Insecticidal Effect on Smaller Tea Tortrix (Adxophyes sp.)
Tea leaves were immersed for about 30 seconds in a liquid chemical prepared by diluting a preparation containing each compound listed in Tables 1 to 3 as an active ingredient to adjust the concentration to 50 ppm. After air-dryness, the tea leaves were placed in a plastic Petri dish with a diameter of 9 cm and inoculated with larvae of smaller tea tortrix, after which the dish was allowed to stand in a room thermostatted at 25° C. and having a humidity of 70%. Eight days after the inoculation, the dead and alive were counted and the insecticidal effect was judged according to the criterion shown in Test Example 1. The test was carried out with triplicate groups of 10 insects.

[2] = system: Common Cutworm (Spodoptera litura); assay: Test Example 2: insecticidal effect on common cutworm, cabbage leaf immersion; conditions: cabbage leaf immersed about 30 seconds, second-instar larvae, 25° C., eight days after the inoculation; for Test Example 2 (insecticidal effect, mortality criterion): 50 ppm
From the text: Insecticidal Effect on Common Cutworm (Spodoptera litura)
A piece of cabbage leaf (cultivar; Shikidori) was immersed for about 30 seconds in a liquid chemical prepared by diluting a preparation containing each compound listed in Tables 4 to 9 as an active ingredient to adjust the concentration to 50 ppm. After air-dryness, it was placed in a plastic Petri dish with a diameter of 9 cm and inoculated with second-instar larvae of common cutworm, after which the dish was closed and then allowed to stand in a room thermostatted at 25° C. Eight days after the inoculation, the dead and alive were counted. The mortality was calculated according to the following equation and the insecticidal effect was judged according to the criterion shown in Test Example 1. The test was carried out with triplicate groups of 10 insects.

[3] = system: Diamond Back Moth (Plutella xylostella); assay: Test Example 1: insecticidal effect on diamond back moth, immersion of Chinese cabbage seedling with eggs; conditions: seedling with eggs immersed about 30 seconds, 25° C., six days after the immersion; for Test Example 1 (insecticidal effect, mortality criterion): 50 ppm
From the text: Insecticidal Effect on Diamond Back Moth (Plutella xylostella)
Adult diamond back moths were released and allowed to oviposit on a Chinese cabbage seedling. Two days after the release, the seedling having the eggs deposited thereon was immersed for about 30 seconds in a liquid chemical prepared by diluting a preparation containing each compound listed in Tables 4 to 9 as an active ingredient to adjust the concentration to 50 ppm. After air-dryness, it was allowed to stand in a room thermostatted at 25° C. Six days after the immersion, the hatched insects were counted. The mortality was calculated according to the following equation and the insecticidal effect was judged according to the criterion shown below. The test was carried out with triplicate groups of 10 insects.

SMILES	Test Example 3 (insecticidal effect, mortality criterion) [1]	Test Example 2 (insecticidal effect, mortality criterion) [2]	Test Example 1 (insecticidal effect, mortality criterion) [3]	mortality at 50 ppm ([2]; Spodoptera litura, 192 h, read-out: Test Example 2 (insecticidal effect, mortality criterion)) [%]	mortality at 50 ppm ([3]; Plutella xylostella, 144 h, read-out: Test Example 1 (insecticidal effect, mortality criterion)) [%]
CSCC(C)(C)NC(=O)c1c(I)cccc1C(=O)Nc1ccc(CC(F)(F)C(F)(F)F)cc1C [5-5]	A (Mortality 100%)	A (Mortality 100%)	A (Mortality 100%)		
Cc1cc(C(C(F)(F)F)C(F)(F)F)ccc1N(C)C(=O)c1cccc(I)c1C(=O)NC(C)C [6-2]	A (Mortality 100%)	E (Mortality 49% or less)	A (Mortality 100%)		
CSCC(C)(C)NC(=O)c1c(I)cccc1C(=O)N(C)c1ccc(C(C(F)(F)F)C(F)(F)F)cc1C [6-3]	A (Mortality 100%)	A (Mortality 100%)	A (Mortality 100%)		
CSCC(C)NC(=O)c1c(I)cccc1C(=O)Nc1ccc(C(C(F)(F)F)C(F)(F)F)cc1C (stereo not drawn) [5-39]	A (Mortality 100%)	A (Mortality 100%)	A (Mortality 100%)		
CSCC(C)(C)NC(=O)c1c(I)cccc1C(=O)Nc1ccc(C(C(F)(F)F)C(F)(F)F)cc1 [5-10]	A (Mortality 100%)	A (Mortality 100%)	A (Mortality 100%)		
Cc1cc(C(C(F)(F)F)C(F)(F)F)ccc1NC(=O)c1cccc(I)c1C(=O)NC(C)(C)C [5-22]	A (Mortality 100%)	C (Mortality 89-80%)	A (Mortality 100%)		
Cc1cc(C(C(F)(F)F)C(F)(F)F)ccc1NC(=O)c1cccc(I)c1C(=O)NC(C)COC(=O)N(C)Cc1ccccc1 (stereo not drawn) [5-31]	A (Mortality 100%)	A (Mortality 100%)	A (Mortality 100%)		
Cc1cc(C(C(F)(F)F)C(F)(F)F)ccc1NC(=O)c1cccc(C(F)(F)F)c1C(=O)NC(C)(C)C[S+](C)[O-] (stereo not drawn) [5-42]	A (Mortality 100%)	A (Mortality 100%)	A (Mortality 100%)		
Cc1cc(C(C(F)(F)F)C(F)(F)F)ccc1NC(=O)c1cccc(I)c1C1=NC(C)(C)CO1 [Compound No. 10-1, 3-iodo-2-(4,4-dimethyloxazolin-2-yl)-2′-methyl-4′-[2,2,2-trifluoro-1-(trifluoromethyl)ethyl]benzanilide]	E (Mortality 49% or less)			≤ 49	100
CSCC(C)(C)NC(=O)c1c(I)cccc1C(=O)Nc1ccc(C(C(F)(F)F)C(F)(F)C(F)(F)F)cc1C (stereo not drawn) [5-71]	A (Mortality 100%)	A (Mortality 100%)	A (Mortality 100%)		
Cc1cc(C(C(F)(F)F)C(F)(F)F)ccc1NC(=O)c1cccc(I)c1C1=NC(C)(CS(C)(=O)=O)CO1 (stereo not drawn) [10-4]	E (Mortality 49% or less)	E (Mortality 49% or less)	A (Mortality 100%)		
Cc1cc(C(C(F)(F)F)C(F)(F)F)ccc1NC(=O)c1cccc([N+](=O)[O-])c1C(=O)NC(C)C [5-14]	A (Mortality 100%)	A (Mortality 100%)	A (Mortality 100%)		
CSCC(C)(C)NC(=O)c1c(I)cccc1C(=O)Nc1ccc(CC(F)(F)C(F)(F)C(F)(F)F)cc1C [5-7]	A (Mortality 100%)	A (Mortality 100%)	A (Mortality 100%)		
CSCC(C)(C)NC(=O)c1c(I)cccc1C(=O)Nc1ccc(C(C(F)(F)F)C(F)(F)F)c(F)c1C [5-61]	A (Mortality 100%)	A (Mortality 100%)	A (Mortality 100%)		
C[S+]([O-])CC(C)(C)NC(=O)c1c(I)cccc1C(=O)Nc1ccc(C(C(F)(F)F)C(F)(F)F)cc1I (stereo not drawn) [5-56]	A (Mortality 100%)	C (Mortality 89-80%)	A (Mortality 100%)		
CON=CC(C)(C)NC(=O)c1ccccc1C(=O)Nc1ccc(C(C(F)(F)F)C(F)(F)F)cc1C [5-12]	A (Mortality 100%)	E (Mortality 49% or less)	A (Mortality 100%)		
Cc1ccc(CNC(=O)OCC(C)NC(=O)c2c(I)cccc2C(=O)Nc2ccc(C(C(F)(F)F)C(F)(F)F)cc2C)cc1 (stereo not drawn) [5-36]	A (Mortality 100%)	E (Mortality 49% or less)	A (Mortality 100%)		
CC(C)(CS(C)(=O)=O)NC(=O)c1c(I)cccc1C(=O)Nc1ccc(C(C(F)(F)F)C(F)(F)F)nc1 [8-3]	A (Mortality 100%)	E (Mortality 49% or less)	A (Mortality 100%)		
CSCC(C)(C)NC(=O)c1c(C(=O)Nc2ccc(C(C(F)(F)F)C(F)(F)F)cc2C)ccc(Cl)c1Cl [5-45]	A (Mortality 100%)	A (Mortality 100%)	A (Mortality 100%)		
CON=CC(C)(C)NC(=O)c1c(Br)cccc1C(=O)Nc1ccc(C(C(F)(F)F)C(F)(F)F)cc1C [5-20]	A (Mortality 100%)	A (Mortality 100%)	A (Mortality 100%)		
CSCC(C)(C)NC(=O)c1c(I)cccc1C(=O)Nc1c(C)cc(C(C(F)(F)F)C(F)(F)F)cc1C [5-68]	E (Mortality 49% or less)	E (Mortality 49% or less)	A (Mortality 100%)		
CSCC(C)(C)NC(=O)c1c(I)cccc1C(=O)Nc1ccc(C(C(F)(F)F)C(F)(F)F)cc1Cl [5-52]	A (Mortality 100%)	A (Mortality 100%)	A (Mortality 100%)		
CCOC(=O)C=CC(C)(C)NC(=O)c1c(I)cccc1C(=O)Nc1ccc(C(C(F)(F)F)C(F)(F)F)cc1C [5-25]	A (Mortality 100%)	A (Mortality 100%)	A (Mortality 100%)		
CC(C)NC(=O)c1c(I)cccc1C(=O)Nc1ccc(C(C(F)(F)F)C(F)(F)F)cc1F [5-50]	A (Mortality 100%)	A (Mortality 100%)	A (Mortality 100%)		
CSCC(C)(C)NC(=O)c1c(I)cccc1C(=O)Nc1ccc(CC(F)(F)F)cc1F [5-3]	A (Mortality 100%)	A (Mortality 100%)	A (Mortality 100%)		
CSCC(C)(C)NC(=O)c1ccccc1C(=O)Nc1ccc(C(C(F)(F)F)C(F)(F)F)cc1C [5-13]	E (Mortality 49% or less)	E (Mortality 49% or less)	A (Mortality 100%)		
C[S+]([O-])CC(C)(C)NC(=O)c1c(I)cccc1C(=O)Nc1ccc(C(C(F)(F)F)C(F)(F)F)cc1C(C)(C)C (stereo not drawn) [5-49]	E (Mortality 49% or less)	E (Mortality 49% or less)	A (Mortality 100%)		
Cc1cc(C(C(F)(F)F)C(F)(F)F)ccc1NC(=O)c1cccc(I)c1C(=O)NC(C)(C)CO [5-27]	E (Mortality 49% or less)	E (Mortality 49% or less)	A (Mortality 100%)		
